Results: paper PMC10669625 (Biomedicines, 2023)

Experiments:
[1] = Limonene exhalation kinetics in breath (Breath Biopsy, GC-MS) after ingestion of 100 mg limonene; conditions: for Cmax (ng) median [IQR]: 100 mg limonene oral, overnight fast
[2] = set-up: method as in PMID 30845345; conditions: mice; oral and inhalation intake; within 30 min post administration; cited from earlier work
[3] = set-up: method as in PMID 20661827; conditions: cited from earlier work
[4] = set-up: method as in PMID 9682146, PMID 9654110; conditions: after oral administration; cited from earlier work
[5] = Breath limonene by selected ion flow tube mass spectrometry (SIFT-MS), one 15 s exhalation; assay type: in vivo; conditions: unpublished data

C=C(C)[C@H]1CC=C(C)CC1 [limonene]
Limonene spike in breath after administration compared to baseline ([1]; all subjects, 100 mg limonene): > 100 fold
Slope (rate of elimination) ([1]; breath, semi-logarithmic scale, control group): −0.027 [−0.031–−0.023]
AUC (0–90 min) median [IQR] ([1]; breath, cirrhosis group): 121,437 [57,921–202,733] ng × min/400 mL
Cmax (ng) median [IQR] ([1]; breath, cirrhosis group): 2077 [1051–4260] ng
AUC (0–90 min) median [IQR] ([1]; breath, control group): 27,107 [17,605–34,946] ng × min/400 mL
Cmax (ng) median [IQR] ([1]; breath, control group): 595 [361–903] ng
Cmax ([1]; case report subject DYL10297 (enrolled as control, suspected mild chronic liver disease), at 40 min): 2421 ng
Organ distribution [2]: majority of limonene found in the liver
Average increase in adipose tissue ([3]; after 4 weeks of continuous exposure): 44 fold
Accumulation in adipose tissue ([3]; after a single dose): no accumulation
Distribution volume [4]: greater than total body water
Breath levels of limonene before administration [5]: a few
Increase of breath limonene after administration vs before [5]: > 1000 fold
Breath levels of limonene after administration ([5]; up to): 5–10 PPM
